# “And” between values parts separate entries of the source, which are not always exact repeats. Equal entries are not always repeated.
# What was measured:
# [1] = tested on: A. fumigatus wild-type ATCC46645; assay: In vitro uptake of ^68Ga-siderophores by A. fumigatus cultures; format: cell-based, Aspergillus fumigatus; conditions: room temperature
# Procedure: The Aspergillus strain used for in vitro studies was A. fumigatus wild-type ATCC46645 (American Type Culture Collection) cultured at 37 °C in Aspergillus minimal medium, containing 1 % glucose as the carbon source, 20 mM glutamine as the nitrogen source, salts and trace elements, as described previously. Iron-sufficient media contained […] FeSO4. For preparation of iron-deficient media, iron addition was omitted. Iron-deficient conditions were verified by detection of extracellular siderophore production, which is suppressed by iron.
# Uptake by A. fumigatus in iron-deficient and iron-sufficient cultures was studied. For the monitoring of uptake over time, ^68Ga-siderophores (5 ng) were incubated in microbial media for 10, 20, 30, 45, 60 and 90 min at room temperature in 96-well plates (Millipore, Billerica, MA). For the monitoring of uptake blocking, excess of ferri-siderophore (Fe-TAFC or Fe-FOXE) and/or sodium azide was used. ^68Ga-siderophores were incubated in iron-deficient and iron-sufficient media for 45 min at room temperature in 96-well plates. The incubation was interrupted in both cases by filtration of the medium and rapid rinsing with ice-cold TRIS buffer. The filters were collected and counted in a γ-counter.
# [2] = Log P of ^68Ga-siderophores; format: physicochemical; conditions: determined as described previously [20]
# Procedure: (§1) TAFC and FOXE were labelled with ^68Ga using acetate buffer at room temperature for 15 min (TAFC) and at 80 °C for 20 min (FOXE). For all in vitro and in vivo studies, the pH of the final product was adjusted with 1.1 M sodium acetate to pH 6–7. The radiochemical purity, log P, protein binding and stability of ^68Ga-siderophores in various media were determined, as described previously.
# A. fumigatus [3] = assay: PET imaging in rat A. fumigatus infection model; format: in vivo, Lewis rats; conditions: infected rats, lungs, calculated from all PET imaging studies, mean ± sd, n=13
# Procedure: (§2) Female or male Lewis rats (2–3 months old), weighing 200–250 g, were treated as described previously. Briefly, the rats received repeated intraperitoneal injections of cyclophosphamide to induce neutropenia before A. fumigatus administration. To prevent bacterial superinfection, the animals were given antibiotics throughout the experiment. Fungal infection was established by intratracheal administration of 100–300 μl of A. fumigatus inoculum in various concentrations (1 × 10^5 to 1 × 10^9 conidia per millilitre). Animals were injected intravenously 1–3 days (depending on the severity of infection) after A. fumigatus administration with ^68Ga-labelled siderophore (10–20 MBq and 1–2 μg of siderophore per rat). The rats were imaged or killed by overdosing with thiopental (Sandoz, Kundl, Austria) 2 h after injection. Various organs and tissues (blood, spleen, kidneys, liver and lungs) were removed and radioactivity was measured in a γ-counter. The excised organs were investigated for the presence of fungi, as described below.
# PET images were acquired with an Inveon animal PET/CT scanner (Siemens Preclinical Solutions, Knoxville, TN) with an intrinsic spatial resolution of 1.5 mm. The animals were placed in a prone position. Static PET images were acquired over 30 min starting 30 min after intravenous injection of ^68Ga-siderophore. Dynamic PET imaging was started upon injection and continued up to 60 min after injection. In addition, combined PET/CT scans were performed for anatomical reference. PET emission scans were acquired for 30 min, preceded by CT scans (spatial resolution 113 μm, 80 kV, 500 μA, exposure time 300 ms). After imaging, animals were killed by CO2/O2. Scans were reconstructed using Inveon Acquisition Workplace software (version 1.5; Siemens Preclinical Solutions, Knoxville, TN) using a 3-D ordered subset expectation maximization/maximum a posteriori (OSEM3D/MAP) algorithm with the following parameters: matrix 256 × 256 × 159, pixel size 0.43 × 0.43 × 0.8 mm^3 and a MAP prior β-value of 1.5.
# [4] = Protein binding in human serum; format: in vitro ADME
# Procedure: as §1
# Stability in 0.1 M FeCl3 = format: physicochemical
# Procedure: as §1
# A. fumigatus [5] = assay: Ex vivo biodistribution in rat A. fumigatus infection model, iron preload; set-up: species or system Lewis rats
# Procedure: (§3) The A. fumigatus (A29) isolate was grown on Sabouraud dextrose agar (BD) for 5 days at 37 °C, and the conidia were harvested in 2 ml of sterile NaCl by gently rubbing with a pipette tip. The conidia suspension was transferred into a sterile 50 ml plastic tube. After homogenization (vortex) and filtration (40 μm nylon cell strainer; BD), the suspension was counted in a Neubauer chamber and adjusted to the volitional concentration in the range 1 × 10^5 to 1 × 10^9 conidia per millilitre.
# as §2
# Rats were treated as in the ‘standard’ infection model above, except that iron solution (FerMed; Medice, Iserlohn, Germany) 10 mg/kg was injected intraperitoneally three times (1 week, 4 days and 1 day) before A. fumigatus administration.
# (§4) The excised organs were homogenized in a petri dish using a sterile surgical blade and transferred to Sabouraud dextrose agar (BD) plates. The plates were incubated at 37 °C and examined daily for 7 days. […] Severe infection was defined as the presence of severe fungal growth 1 day after incubation, mild infection was defined as the presence of minor growth up to 3 days after incubation, and no infection was defined as lack of growth within 1 week of incubation.
# [6] = Metabolic stability in normal Balb/c mice (RP-HPLC of urine, blood, liver and kidney homogenates); format: in vivo; conditions: 30 min p.i., % intact on RP-HPLC
# Procedure: Urine, blood, liver and kidneys of normal Balb/c mice injected with ^68Ga-siderophores and treated as described previously were collected 30 min after injection. The urine sample was directly injected onto the RP-HPLC column. Blood samples were precipitated with acetonitrile and centrifuged for 2 min, and the supernatant was injected onto the RP-HPLC column. Liver and kidneys were washed in the ice-cold TRIS buffer and liquidized using a mixer in a falcon tube containing 1 ml of TRIS buffer. The liver and kidney homogenates obtained were mixed with acetonitrile and centrifuged for 2 min, and the supernatant was injected onto the RP-HPLC column. In all cases 1 min fractions of the column eluate were collected and measured in a γ-counter. Samples were not collected at 90 min after injection because the measured activity was already low in the samples obtained 30 min after injection. All metabolic studies were performed using a previously described HPLC method.
# A. fumigatus [7] = assay: Ex vivo biodistribution in rat A. fumigatus infection model, standard; set-up: species or system Lewis rats
# Procedure: as §3, §2, §4
# Stability in 6 mM DTPA = format: physicochemical
# Procedure: as §1
# [8] = Biodistribution in normal Balb/c mice; format: in vivo; conditions: normal noninfected Balb/c mice, i.v. tail vein
# Procedure: Normal noninfected Balb/c mice (female, 6 weeks old) were injected with ^68Ga-siderophore (2 MBq and 0.1–0.2 μg of siderophore per mouse) into the tail vein. Animals were killed by cervical dislocation 30 min and 90 min after injection. The organs and tissues (blood, spleen, pancreas, stomach, intestines, kidneys, liver, heart, lungs, muscle and femur) were removed and radioactivity was counted in a γ-counter. The results are expressed as percentage of injected dose per gram of tissue.
# Stability in human serum = format: in vitro ADME
# Procedure: as §1
# [9] = iron preload model, 2 h after injection
structure (smiles),measurement,setting,value
"CC(=O)NC1CCCN([O-])C(=O)C=C(C)CCOC(=O)C(NC(C)=O)CCCN([O-])C(=O)C=C(C)CCOC(=O)C(NC(C)=O)CCCN([O-])C(=O)C=C(C)CCOC1=O.[68Ga+3] (stereo not shown) [^68Ga-TAFC, triacetylfusarinine C]",Uptake by A. fumigatus in iron-deficient cultures,"[1]; 5 ng ^68Ga-siderophore, 10-90 min, 96-well plates, filtration, γ-counter",rapid uptake
same,Blocking of uptake with excess of ferri-siderophore and/or sodium azide,"[1]; iron-deficient cultures, 45 min incubation",could be blocked
same,Log P,[2],−2.59
same,Target/non-target ratio,A. fumigatus [3],5.81 ± 6.05 (n=13)
same,Protein binding (%),[4]; incubation time 30 min,0.47%
same,Protein binding (%),[4]; incubation time 60 min,0.76%
same,Protein binding (%),[4]; incubation time 120 min,1.21%
same,Stability in 0.1-M FeCl3 (%),Stability in 0.1 M FeCl3; incubation time 30 min,99.4%
same,Stability in 0.1-M FeCl3 (%),Stability in 0.1 M FeCl3; incubation time 60 min,98.5%
same,Stability in 0.1-M FeCl3 (%),Stability in 0.1 M FeCl3; incubation time 120 min,99.3%
same,Severe infection (%ID/g - lungs),"A. fumigatus [5]; iron preload model (10 mg/kg i.p. three times), severely infected rats, lungs 2 h after injection, n in cell",0.64 (n=1) %ID/g
same,"Lung/blood ratio, control",A. fumigatus [5]; [9],0.99 (n=1)
same,"Lung/blood ratio, mild infection",A. fumigatus [5]; [9],5.35 (n=2)
same,"Lung/blood ratio, severe infection",A. fumigatus [5]; [9],1.41 (n=1)
same,"Lung/kidneys ratio, control",A. fumigatus [5]; [9],0.08 (n=1)
same,"Lung/kidneys ratio, mild infection",A. fumigatus [5]; [9],0.31 (n=2)
same,"Lung/kidneys ratio, severe infection",A. fumigatus [5]; [9],0.07 (n=1)
same,"Lung/liver ratio, control",A. fumigatus [5]; [9],0.76 (n=1)
same,"Lung/liver ratio, mild infection",A. fumigatus [5]; [9],4.53 (n=2)
same,"Lung/liver ratio, severe infection",A. fumigatus [5]; [9],3.49 (n=1)
same,Mild infection (%ID/g - lungs),"A. fumigatus [5]; iron preload model, mildly infected rats, lungs 2 h after injection, n in cell",0.27 (n=2) %ID/g
same,Control (%ID/g - lungs),"A. fumigatus [5]; iron preload model, rats showing no infection, lungs 2 h after injection, n in cell",0.04 (n=1) %ID/g
same,Stability in kidney homogenate (%),[6],96.7%
same,Stability in liver homogenate (%),[6],98.1%
same,Stability in urine (%),[6]; γ-counter,97.6%
same,Stability in blood (%),[6]; acetonitrile precipitation,98.7%
same,"Lung/blood ratio, control (mean ± sd)",A. fumigatus [7]; 2 h after injection,1.34 ± 0.22 (n=9)
same,"Lung/blood ratio, mild infection (mean ± sd)",A. fumigatus [7]; 2 h after injection,3.82 ± 2.89 (n=3)
same,"Lung/blood ratio, severe infection (mean ± sd)",A. fumigatus [7]; 2 h after injection,15.11 ± 11.37 (n=4)
same,"Lung/kidneys ratio, control (mean ± sd)",A. fumigatus [7]; 2 h after injection,0.07 ± 0.03 (n=9)
same,"Lung/kidneys ratio, mild infection (mean ± sd)",A. fumigatus [7]; 2 h after injection,0.16 ± 0.14 (n=3)
same,"Lung/kidneys ratio, severe infection (mean ± sd)",A. fumigatus [7]; 2 h after injection,1.40 ± 0.76 (n=4)
same,"Lung/liver ratio, control (mean ± sd)",A. fumigatus [7]; 2 h after injection,0.84 ± 0.48 (n=9)
same,"Lung/liver ratio, mild infection (mean ± sd)",A. fumigatus [7]; 2 h after injection,4.81 ± 2.70 (n=3)
same,"Lung/liver ratio, severe infection (mean ± sd)",A. fumigatus [7]; 2 h after injection,14.29 ± 6.10 (n=4)
same,Mild infection (%ID/g - lungs) (mean ± sd),"A. fumigatus [7]; mildly infected rats, lungs ex vivo 2 h after injection, n in cell",0.29 ± 0.12 %ID/g and 0.29 ± 0.12 (n=3) %ID/g
same,Control (%ID/g - lungs) (mean ± sd),"A. fumigatus [7]; rats showing no infection, lungs ex vivo 2 h after injection, n in cell",0.04 ± 0.01 %ID/g and 0.04 ± 0.01 (n=9) %ID/g
same,Severe infection (%ID/g - lungs) (mean ± sd),"A. fumigatus [7]; severely infected rats, lungs ex vivo 2 h after injection, γ-counter, n in cell",0.95 ± 0.37 %ID/g and 0.95 ± 0.37 (n=4) %ID/g
same,Stability in 6-mM DTPA (%),Stability in 6 mM DTPA; incubation time 30 min,85.0%
same,Stability in 6-mM DTPA (%),Stability in 6 mM DTPA; incubation time 60 min,84.7%
same,Blood level,[8]; 30 min after injection,1.6 ± 0.37 %ID/g
same,Intestinal accumulation,[8]; 30 min after injection,1.7 ± 1.04 %ID/g
same,Intestinal accumulation,[8]; 90 min after injection,1.0 ± 0.26 %ID/g
same,Stability in human serum (%),Stability in human serum; incubation time 30 min,99.9%
same,Stability in human serum (%),Stability in human serum; incubation time 60 min,99.9%
same,Stability in human serum (%),Stability in human serum; incubation time 120 min,99.9%

# From paper PMC3369139, “Preclinical evaluation of two ^68Ga-siderophores as potential radiopharmaceuticals for Aspergillus fumigatus infection imaging” (European Journal of Nuclear Medicine and Molecular Imaging, 2012)
